The values that follow come from article PMC12483982, “MTS1 regulates rice plant architecture by mediating phosphoinositide metabolism” (Plant Biotechnology Journal, 2025).

In the experiment the target is T1, NGR5 (GST-NGR5) (Oryza sativa, UniProt X5HYT8).
T1 construct: gene SMOS1; recombinant GST fusion from E. coli Rosetta (DE3), glutathione sepharose, GST tag kept; NT-647 NHS labelled
T1 sequence (X5HYT8 1-425): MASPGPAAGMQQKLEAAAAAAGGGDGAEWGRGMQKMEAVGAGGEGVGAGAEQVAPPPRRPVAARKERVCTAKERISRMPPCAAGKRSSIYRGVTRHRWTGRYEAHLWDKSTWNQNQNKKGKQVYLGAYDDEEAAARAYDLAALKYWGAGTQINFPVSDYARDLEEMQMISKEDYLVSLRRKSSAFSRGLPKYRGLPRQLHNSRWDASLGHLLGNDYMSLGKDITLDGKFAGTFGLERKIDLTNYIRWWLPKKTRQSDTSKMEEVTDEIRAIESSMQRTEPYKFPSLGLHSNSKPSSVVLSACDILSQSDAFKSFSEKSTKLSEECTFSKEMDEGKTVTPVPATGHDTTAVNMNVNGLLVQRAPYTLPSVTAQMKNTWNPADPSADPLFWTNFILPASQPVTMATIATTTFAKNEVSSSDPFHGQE
Description: microscale thermophoresis (NT.[…]). The experiment is classed as binding. The note with it: NT-647 NHS-labelled GST-NGR5 10 nM; phosphate buffer with 0.005% Tween-20; 30 min; also seen in lipid-protein overlay.

The substance phosphatidylinositol 4-phosphate [PI4P] registered a Kd of 1.14 ± 0.6 µM.
